# Measured values taken from publication PMC8037814, “Polymorphic Characterization, Pharmacokinetics, and Anti-Inflammatory Activity of Ginsenoside Compound K Polymorphs” (Molecules, 2021).
# “And” between values parts separate entries of the source, which are not always exact repeats. Equal entries are not always repeated. Where two headings read alike, the source gives them in different places.
# Key:
# [1] = tested on: carrageenan-induced acute paw inflammation; test: Paw swelling test induced by carrageenan in rats; format: in vivo, Sprague-Dawley rats; design: paw volume: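 right hind paw volume measured with a plethysmometer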; settings: for paw volume / paw edema: mean±SD of 6 rats; for edema inhibition: versus model group
# Experimental: Rats were divided into 11 groups of six animals each (sex in half): the normal group, the model group, indomethacin group (1 mg/kg), and form I, II, III, IV groups (each form set 10 mg/kg and 20 mg/kg groups, respectively). Indomethacin and CK were ground and suspended in 0.5% CMC-Na solution. […] The same volume of saline was injected into the normal group. […] Paw edema and inhibitory rate were calculated as the following formula, and the differences among groups were compared with the t-test. Paw edema (%) = (Vn − V0)/V0 × 100%. Vn: paw volume at different time intervals after carrageenan injection. V0: paw volume before carrageenan injection. Inhibitory rate (%) = (Em − Ee)/Em × 100%. Em: paw edema of the model group. Ee: paw edema of the experimental group.
# [2] = Pharmacokinetics after oral administration of CK polymorphs in rats (20 mg/kg); format: in vivo, Sprague-Dawley rats; settings: p.o. 20 mg/kg, individual rats 1-3
# Experimental: All samples were analyzed with a triple quadrupole LC-MS/MS (API 4000 LC-MS/MS, AB Sciex, Framingham, MA, USA) coupled with an Agilent 1200 HPLC system (Agilent Technologies, Palo Alto, CA, USA). The MS was equipped with an electrospray system (ESI). The N2 gas temperature and ion-spray voltage were set to 550 °C and 4.5 kV, respectively. CK was measured in multiple reaction monitoring (MRM) mode using a negative electrospray ionization source at m/z 667.4 → 621.2 for CK (CID 25.6 v) and m/z 271.2 → 228.8 for internal standard (IS, (E)-5-(4-fluorostyryl)-2-isopropylbenzene-1,3-diol, Welichem Biotech Inc., Wayburne Drive Burnaby, BC, Canada) (CID 28.3 v) with a dwell time of 0.1 s.
# Rats were divided randomly into 5 groups of six animals each (sex in half) and given 7 days to acclimatize to the facility before the experiments began. The four forms of CK were suspended in 0.5% sodium carboxymethyl cellulose (CMC-Na) solution and orally administered to rats at a dose of 20 mg/kg. A CK solution in a mixed solvent of dimethyl sulfoxide (DMSO)/castor oil/physiologic saline (3:5:92, v/v) was intravenously administered to the remaining group via the tail vein at a dose of 10 mg/kg. Blood samples were collected by retro-orbital puncture at the following times: 0.167, 0.333, 0.667, 1, 2, 3, 4, 6, 9, 12, and 24 h for the oral administration, and at 0.0083, 0.05, 0.133, 0.25, 0.5, 1, 2, 4, 6, and 9 h for the intravenous administration. Plasma samples were obtained by centrifuging a heparinized blood tube at 4000 rpm for 5 min and then stored at −70 °C until analysis.
# The procedure for drug extraction from plasma samples was as follows: 0.2 mL acetonitrile, 0.2 mL plasma sample, and 10 μL IS (1 µg/mL) were added into a 1.5 mL Eppendorf-type tube. This mixture was vortexed for 1 min and then treated with 0.8 mL of methyl tert-butyl ether (MTBE) to precipitate the plasma proteins. After a mechanical vortex for 1 min and subsequent centrifugation (4000 rpm, 5 min), 0.8 mL of the supernatant was transferred and blow-dried with N2 at 40 °C in a water bath. Finally, the residue was dissolved in 120 μL of mobile phase, and then 10 μL was subjected to HPLC for analysis. […] Intra- and inter-day precision and accuracy never exceeded 15% by analyzing six replicate samples.
# The CK pharmacokinetic parameters in rats, including the area under the curve (AUC(0–t) and AUC(0–∞)), mean residence time (MRT(0–t) and MRT(0–∞)), maximum concentration (Cmax), time to maximum concentration (Tmax), half-life (t1/2), apparent distribution volume (V), and total plasma clearance (CL), were derived from plasma concentration-time curves by using non-compartmental analysis (NCA) with DAS 2.0 software (Drug And Statistics, Mathematical Pharmacology Professional Committee of China, Shanghai, China). The absolute bioavailability (Fabs) was calculated from the dose-adjusted ratio of AUCp.o. to AUCi.v.. One-way analysis of variance (ANOVA) by SPSS 11.5 (SPSS Inc., Chicago, IL, USA) was conducted to compare the primary PK parameters.
# [3] = DSC thermal analysis of CK polymorphs; format: physicochemical; settings: 20 K/min from 20 to 400 °C, dry nitrogen flow
# Experimental: DSC measurements were performed on a DSC204 Phoenix calorimeter (NETZSCH, Selb, Germany) with a heating rate of 20 K/min from 20 to 400 °C. The dry nitrogen flow was about 50 mL/min. Data were analyzed using NETZSCH analysis software.
# [4] = Pharmacokinetics after oral administration of CK polymorphs in rats (20 mg/kg); format: in vivo, Sprague-Dawley rats; settings: for Fabs (absolute bioavailability): p.o. 20 mg/kg vs i.v. 10 mg/kg, dose-adjusted AUC ratio; for Tmax / t1/2z / AUC(0–t) / AUC(0–∞) / CLz/F / Cmax / Vz/F: 20 mg/kg
# [5] = 1 mg/kg p.o. qd 3 days, 3h after carrageenan
# [6] = 1 mg/kg p.o. qd 3 days, 4h after carrageenan
# [7] = 1 mg/kg p.o. qd 3 days, 5h after carrageenan
# [8] = 1 mg/kg p.o. qd 3 days, 6h after carrageenan
# [9] = 10 mg/kg p.o. qd 3 days, 3h after carrageenan, listed as From IV
# [10] = 10 mg/kg p.o. qd 3 days, 4h after carrageenan, listed as From IV
# [11] = 10 mg/kg p.o. qd 3 days, 5h after carrageenan, listed as From IV
# [12] = 10 mg/kg p.o. qd 3 days, 6h after carrageenan, listed as From IV
# [13] = 20 mg/kg p.o. qd 3 days, 3h after carrageenan, listed as From IV
# [14] = 20 mg/kg p.o. qd 3 days, 4h after carrageenan, listed as From IV
# [15] = 20 mg/kg p.o. qd 3 days, 5h after carrageenan, listed as From IV
# [16] = 20 mg/kg p.o. qd 3 days, 6h after carrageenan, listed as From IV
# [17] = female rats, p.o. 20 mg/kg, individual rats 1-3
# [18] = female rats, p.o. 20 mg/kg, mean ± SD (n = 3)
# [19] = male rats, p.o. 20 mg/kg, mean ± SD (n = 3)
smiles,measurement,setting,value
"COc1ccc2c(c1)c(CC(=O)O)c(C)n2C(=O)c1ccc(Cl)cc1 [Indomethacin, indomethacin, reference compound]",paw volume,"[1]; 1 mg/kg p.o. qd 3 days, 0h (before carrageenan)",1.60±0.13
same,paw edema,[1]; [5],48.00±18.21%
same,paw volume,[1]; [5],2.35±0.15
same,edema inhibition,[1]; [5],25.32%
same,paw edema,[1]; [6],43.75±15.39%
same,paw volume,[1]; [6],2.28±0.12
same,edema inhibition,[1]; [6],29.85%
same,paw edema,[1]; [7],30.74±10.87%
same,paw volume,[1]; [7],2.08±0.15
same,edema inhibition,[1]; [7],40.61%
same,paw edema,[1]; [8],23.41±9.18%
same,paw volume,[1]; [8],1.97±0.12
same,edema inhibition,[1]; [8],40.46%
"CC(C)=CCCC(C)(OC1OC(CO)C(O)C(O)C1O)C1CCC2(C)C1C(O)CC1C3(C)CCC(O)C(C)(C)C3CCC12C [Form IV, 20-O-β-D-glucopyranosyl-20(S)-protopanaxadiol]",AUC(0-t),[2]; female rats,1818.83 ng·h/mL and 1232.02 ng·h/mL and 885.16 ng·h/mL
same,AUC(0-∞),[2]; female rats,897.84 ng·h/mL and 1828.44 ng·h/mL and 1234.21 ng·h/mL
same,CLz/F,[2]; female rats,371.3 mL/min/kg and 182.3 mL/min/kg and 270.2 mL/min/kg
same,Cmax,[2]; female rats,122.10 ng/mL and 340.98 ng/mL and 193.16 ng/mL
same,Vz/F,[2]; female rats,116.76 L/kg and 47.28 L/kg and 56.79 L/kg
same,AUC(0-t),[2]; male rats,540.26 ng·h/mL and 711.78 ng·h/mL and 1023.81 ng·h/mL
same,AUC(0-∞),[2]; male rats,603.16 ng·h/mL and 720.70 ng·h/mL and 1028.47 ng·h/mL
same,CLz/F,[2]; male rats,552.7 mL/min/kg and 462.5 mL/min/kg and 324.2 mL/min/kg
same,Cmax,[2]; male rats,115.38 ng/mL and 116.79 ng/mL and 267.12 ng/mL
same,t1/2z,[2]; male rats,3.99 h and 3.07 h and 3.39 h
same,paw volume,"[1]; 10 mg/kg p.o. qd 3 days, 0h (before carrageenan), listed as From IV",1.60±0.05
same,paw edema,[1]; [9],63.73±8.98%
same,paw volume,[1]; [9],2.62±0.13
same,paw edema,[1]; [10],60.32±7.19%
same,paw volume,[1]; [10],2.57±0.10
same,paw edema,[1]; [11],40.95±1.48%
same,paw volume,[1]; [11],2.26±0.05
same,edema inhibition,[1]; [11],18.24%
same,paw edema,[1]; [12],30.95±10.46%
same,paw volume,[1]; [12],2.09±0.10
same,edema inhibition,[1]; [12],13.86%
same,paw volume,"[1]; 20 mg/kg p.o. qd 3 days, 0h (before carrageenan), listed as From IV",1.62±0.05
same,paw edema,[1]; [13],63.17±8.40%
same,paw volume,[1]; [13],2.64±0.16
same,paw edema,"[1]; 20 mg/kg p.o. qd 3 days, 4h after carrageenan",58.6 ± 3.6%
same,paw edema,[1]; [14],58.65±3.69%
same,paw volume,[1]; [14],2.57±0.09
same,paw edema,[1]; [15],39.21±10.18%
same,paw volume,[1]; [15],2.26±0.13
same,edema inhibition,[1]; [15],21.72%
same,paw edema,[1]; [16],31.27±12.96%
same,paw volume,[1]; [16],2.13±0.15
same,edema inhibition,[1]; [16],12.98%
same,"paw edema, difference from the model group",[1]; any time point post carrageenan injection,no statistical difference
same,DSC onset of the decomposition endotherm (thermodynamical stability),[3],250.2 °C
same,Fabs (absolute bioavailability),[4]; female rats,4.07%
same,Tmax,[4]; [17],3.00 h
same,t1/2z,[4]; [17],3.63 h and 3.00 h and 2.43 h
same,AUC(0–t),[4]; [18],1312.0 ± 471.95 ng·h/mL
same,AUC(0–∞),[4]; [18],1320.17 ± 471.22 ng·h/mL and 1320.2 ± 471.22 ng·h/mL
same,CLz/F,[4]; [18],274.5 ± 94.5 mL/min/kg and 275 ± 94.5 mL/min/kg
same,Cmax,[4]; [18],218.75 ± 111.66 ng/mL and 218.8 ± 111.7 ng/mL
same,Tmax,[4]; [18],2.3 ± 0.58 h
same,Vz/F,[4]; [18],73.61 ± 37.67 L/kg and 73.6 ± 37.7 L/kg
same,t1/2z,[4]; [18],3.02 ± 0.60 h and 3.0 ± 0.60 h
same,Tmax,"[4]; female, Sprague-Dawley, rat, plasma, po, female rats, p.o. 20 mg/kg, mean ± SD (n = 3), read-out: Tmax",2.33 ± 0.58 h
same,Fabs (absolute bioavailability),[4]; male rats,2.59%
same,Vz/F,"[4]; male rats, p.o. 20 mg/kg, individual rats 1-3",162.18 L/kg and 159.92 L/kg and 86.19 L/kg
same,AUC(0–t),[4]; [19],758.62 ± 245.16 ng·h/mL
same,AUC(0–∞),[4]; [19],784.11 ± 219.63 ng·h/mL
same,CLz/F,[4]; [19],446.5 ± 115 mL/min/kg and 447 ± 115 mL/min/kg
same,Cmax,[4]; [19],166.43 ± 87.20 ng/mL and 166.4 ± 87.20 ng/mL
same,Vz/F,[4]; [19],136.10 ± 43.24 L/kg and 136 ± 43.2 L/kg
same,t1/2z,[4]; [19],3.48 ± 0.47 h and 3.5 ± 0.47 h
same,decrease in the bioavailability from form I to form IV,"[4]; rats, p.o. 20 mg/kg",34%
